Data from patent US20190388421A1, “NOVEL COMPOUNDS AND PHARMACEUTICAL COMPOSITIONS THEREOF FOR THE TREATMENT OF FIBROSIS” (Galapagos NV, priority 2016, published 2019).

Legend:
[1] = target: T1, human GPCR sphingosine 1-phosphate receptor 1 (S1PR1) (Homo sapiens, UniProt P21453); assay: S1PR1 selectivity assay (Ca2+ flux, antagonist); type: cell-based; details: S1P1 antagonist EC50, CHO cells overexpressing human S1PR1 and Gq protein
T1 construct: host or cells: CHO
Method: (§1) After readout of the agonist activity, the plates are incubated for 15 min at 37° C. and 5% CO2. Then, cells are stimulated with 10 μL Sphingosine-1-Phosphate (S1P) (Avanti Polar lipids-860492P) at its EC80 concentration. Intracellular Ca^2+ changes are immediately measured by reading fluorescence during 3 min (FDSS/μCELL reader). The ratio of the maximal fluorescence over the background fluorescence before compound injection is used to determine compound response.
(§2) For EC50 determination, a 10 point dilution series of compounds starting from 23.3 μM and 20 μM highest final concentration for agonist and antagonist respectively, ⅓ dilution was performed.
(§3) The obtained ratio's for agonist and antagonist readout were normalized versus vehicle and EC100 of S1P as controls for agonist mode and versus vehicle and EC80 of S1P for antagonist mode. From these normalized data EC50 of the compounds are derived.
(§4) To evaluate the selectivity of the compounds for S1PR2 over S1PR1 and S1PR5, a similar assay set up as described above for the S1PR2 calcium flux assays was performed: CHO cells stably overexpressing human GPCR sphingosine 1-phosphate receptor 1 and Gq protein (Euroscreen, FAST-0197A) or overexpressing human GPCR sphingosine 1-phosphate receptor 5 and Gq protein were used (Perkin Elmer, ES-593-A). In case of the S1PR5 assay triggering was done with an S1PR5 specific agonist instead of with S1P (Hobson et al., 2015).

S1PR2 = target: T2, S1PR2 (Homo sapiens, UniProt O95136); assay: GTP-γS binding assay ([35S]GTPγS, S1P at EC80, S1PR2 membranes); type: biochemical; details: membranes from stable cell line over expressing S1PR2, read-out: S1PR2 EC
T2 construct: expressed in transfected cells
Method: The following assay can be used for determination of S1PR2 activation. The [^35S] GTPγS assay measures the level of G protein activation following agonist occupation of a GPCR, by determining the binding of the non-hydrolysable analog [^35S] GTPγS to Gα subunits.
The assay is performed in a 96 well plate where the following reagents are added. First 50 μL compound is added into the assay plate, followed by addition of 20 μL S1P at EC80 concentration (concentration which gives 80% of the activity of S1PR2). Then, 30 μL of a mixture consisting of membranes-GTPγS-SpA beads is added [mixture consists of 2.5 μg/well membranes derived from stable cell line over expressing S1PR2 (membranes are pre-incubated with 1 μM GDP for 15 min at 4° C.), 0.1 nM [35S]GTPγS (Perkin Elmer, NEG030) and 0.5 mg/well PVT-WGA SpA beads (Perkin Elmer, RPNQ0001)]. All components are diluted in assay buffer containing 20 mM Tris pH 7.5; 10 mM MgCl2; 100 mM NaCl; 0.1% BSA FAF; 50 ug/ml saponin. After an incubation for 4 h at room temperature, plates are centrifuged at 2000 rpm during 20 min. Plates are read on a Topcount reader (Perkin Elmer) immediately after centrifugation (readout time, 1 min/well).

[2] = target: T3, human GPCR sphingosine 1-phosphate receptor 5 (S1PR5) (Homo sapiens, UniProt Q9H228); assay: S1PR5 selectivity assay (Ca2+ flux, antagonist, S1PR5 specific agonist trigger); type: cell-based; details: S1P5 antagonist EC50, CHO cells overexpressing human S1PR5 and Gq protein
T3 construct: host or cells: CHO
Method: as §1, §2, §3, §4

[3] = target: T4, human GPCR sphingosine 1-phosphate receptor 2 (S1PR2) (Homo sapiens, UniProt O95136); assay: S1P2 antagonist assay (Ca2+ flux, S1P at EC80); type: cell-based; details: CHO-S1PR2 cells, highest concentration 20 μM
T4 construct: host or cells: CHO
Method: Triggering of S1PR2 by administration of Sphingosine-1-phosphate leads to a transient increase in intracellular Ca^2+. The Ca^2+ flux assays are measuring the release of Ca^2+ intracellularly by use of a Ca^2+ sensitive fluorescent dye. The assay is firstly run in agonist mode (incubation of compounds alone) to ensure that the Ca^2+ released measured is not caused by the test compound having an agonistic effect. Then the assay is continued in antagonist mode (Sphingosine-1-Phosphate added to incubated medium containing the test compounds).
CHO cells stably overexpressing human GPCR sphingosine 1-phosphate receptor 2 (CHO—S1PR2 Perkin Elmer; ES-594-A) are seeded from a frozen stock in 384 wells sterile microplates (50 μL; 7,500 cells/well) and are incubated overnight at 37° C. and 5% CO2. The next day cells are washed twice with starvation medium (F-12 Ham's medium containing 0.1% BSA (Fatty acid free: FAF)) and left in […] starvation medium for 1 h at 37° C., 5% CO2. After this starvation cells are incubated with […] buffer containing the Ca^2+-sensitive fluorescent dye (0.5 mg Fluo8+125 mg Allura Red in 100 ml of 1% DMSO, in HBSS+20 mM Hepes+5 mM probenecid). The cells are incubated for an additional 1 hour after which 10 μL compounds, diluted in HBSS buffer with 20 mM Hepes and 0.1% BSA (FAF), are added to the cells and intracellular Ca^2+ changes are immediately measured by reading fluorescence during 3 min (FDSS/μCELL reader). The ratio of the maximal fluorescence over the background fluorescence before compound injection is used to determine compound response.
as §1, §2, §3

HFL-1 cells [4] = assay: IL8 assay in the presence of Human Serum Albumin; type: cell-based; details: HFL1, S1P (5 μM) induced IL-8, HFL-1 cells, with 2% HSA, read-out: HSA IL8 EC50
Method: (§5) S1P is able to induce cytokines such as IL-8 in a process that is S1PR2 dependent (O'Sullivan et al, 2014; Bruennert et al, 2015). This assay is designed to test inhibitory activity of compounds on S1P induced IL-8 on HFL-1 cells, a human fetal lung fibroblast cell line.
To evaluate the influence of plasma protein binding of Sip as well as compound, the S1P induced IL-8 levels were evaluated in presence of 2% Human Serum Albumin (HSA, equivalent to 40% human serum). By adding 2% HSA, which affects both the activity of the compounds as well as the S1P potency, the physiological condition are reproduced and the shift in potency expected under in vivo serum conditions can be measured.
(§6) Human Fetal Lung cells (HFL-1) are seeded in 96 well plates in growth medium (F12K+10% heat inactivated FBS+1% Pen/strep). After overnight incubation at 37° C., 5% CO2 cells are refreshed with starvation medium with HSA (F12K+1% FBS+1% Pen/strep+1.95% HSA). On day three, compounds are added (10 point serial dilution, 30 μM highest concentration, 1/3 dilution, 0.3% DMSO final) and plates are incubated for 1 h at 37° C., 5% CO2. Subsequently S1P at 5 μM final concentration is added and plates are incubated for 16 to 24 h at 37° C., 5% CO2 after which the supernatant was collected. IL-8 levels in the supernatant are determined with the IL-8 ELISA of R&D systems.

HFL-1 cells [5] = assay: IL8 assay (S1P induced IL-8 production); type: cell-based; details: Homo sapiens, HFL1; S1P (1 μM) induced IL-8, HFL-1 cells, without HSA
Method: as §5
as §6, with “medium without” for “medium with”, “FBS+1% Pen/strep).” for “FBS+1% Pen/strep+1.95% HSA).”, “concentration, ⅓” for “concentration, 1/3”, “for one hour” for “for 1 h”, “at 1” for “at 5”, “24 hours” for “24 h”

T4 sequence (O95136 whole entry): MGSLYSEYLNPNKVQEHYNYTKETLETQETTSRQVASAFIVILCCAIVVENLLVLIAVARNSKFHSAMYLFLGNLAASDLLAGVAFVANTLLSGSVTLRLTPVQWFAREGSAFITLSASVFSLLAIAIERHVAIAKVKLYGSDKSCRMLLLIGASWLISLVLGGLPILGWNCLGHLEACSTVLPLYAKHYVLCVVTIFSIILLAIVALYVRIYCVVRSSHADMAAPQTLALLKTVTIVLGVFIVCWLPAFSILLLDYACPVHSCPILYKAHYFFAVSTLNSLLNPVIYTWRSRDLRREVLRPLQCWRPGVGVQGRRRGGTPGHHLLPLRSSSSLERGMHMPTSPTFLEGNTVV
T2 sequence (O95136 whole entry): as above
T3 sequence (Q9H228 whole entry): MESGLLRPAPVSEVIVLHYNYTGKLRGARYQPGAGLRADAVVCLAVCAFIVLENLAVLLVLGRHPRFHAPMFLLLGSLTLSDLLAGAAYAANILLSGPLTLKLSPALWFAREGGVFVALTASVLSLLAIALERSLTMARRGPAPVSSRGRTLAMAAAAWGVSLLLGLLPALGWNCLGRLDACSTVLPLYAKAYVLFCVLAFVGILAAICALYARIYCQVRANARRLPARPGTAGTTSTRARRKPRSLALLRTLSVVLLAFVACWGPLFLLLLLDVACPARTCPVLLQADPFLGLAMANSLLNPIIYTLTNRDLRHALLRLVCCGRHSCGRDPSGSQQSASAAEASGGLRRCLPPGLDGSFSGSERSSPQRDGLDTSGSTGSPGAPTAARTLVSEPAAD
T1 sequence (P21453 whole entry): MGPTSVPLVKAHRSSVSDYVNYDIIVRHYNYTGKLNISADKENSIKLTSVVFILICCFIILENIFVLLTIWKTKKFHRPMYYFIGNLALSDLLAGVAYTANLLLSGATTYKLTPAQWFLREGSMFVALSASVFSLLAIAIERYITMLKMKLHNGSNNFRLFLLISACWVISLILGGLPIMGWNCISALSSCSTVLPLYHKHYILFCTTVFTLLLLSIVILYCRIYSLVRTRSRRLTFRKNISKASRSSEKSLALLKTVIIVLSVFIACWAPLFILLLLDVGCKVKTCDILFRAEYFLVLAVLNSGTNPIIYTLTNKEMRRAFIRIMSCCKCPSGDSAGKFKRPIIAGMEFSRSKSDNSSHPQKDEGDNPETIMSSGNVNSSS

EC50 [1] | EC50 (S1PR2) | EC50 [2] | EC50 [3] | IC50 (HFL-1 cells [4]) | EC50 (HFL-1 cells [5]) | SMILES
2.02 µM | 0.408 µM | 6.61 µM | 0.0658 µM | – | – | Cc1cc(CNC(=O)Nc2cc(OCC(C)(F)F)nc(C(F)(F)F)c2)nnc1-c1cn(C)nc1C(F)(F)F [Compound 34, 1-[2-(2,2-difluoropropoxy)-6-(trifluoromethyl)-4-pyridyl]-3-[[5-methyl-6-[1-methyl-3-(trifluoromethyl)pyrazol-4-yl]pyridazin-3-yl]methyl]urea]
≥ 19.8 µM | 9.58 µM | ≥ 19.8 µM | 5.43 µM | – | – | Cc1cc(CNC(=O)Nc2cc(OCC3COCCO3)nc(C(F)(F)F)c2)nnc1-c1cn(C)nc1C(F)(F)F (stereo not shown) [Compound 37, 1-[2-(1,4-dioxan-2-ylmethoxy)-6-(trifluoromethyl)4-pyridyl]-3-[[5-methyl-6-[1-methyl-3-(trifluoromethyl)pyrazol-4-yl]pyridazin-3-yl]methyl]urea]
≥ 19.8 µM | 4.65 µM | ≥ 19.8 µM | 6.03 µM | – | – | Cc1cc(CNC(=O)Nc2ccnc(C(F)(F)F)c2)nnc1-c1cn(C)nc1C(F)(F)F [Compound 43, 1-[[5-methyl-6-[1-methyl-3-(trifluoromethyl)pyrazol-4-yl]pyridazin-3-yl]methyl]-3-[2-(trifluoromethyl)-4-pyridyl]urea]
– | 28.7 µM | – | – | 9.95 µM | 2.18 µM | Cc1cc(CNC(=O)Nc2cc(OCC(=O)N(C)C)nc(C(F)(F)F)c2)nnc1-c1cn(C)nc1C(F)(F)F [Compound 67, N,N-dimethyl-2-[[4-[[5-methyl-6-[1-methyl-3-(trifluoromethyl)pyrazol-4-yl]pyridazin-3-yl]methyl-carbamoyla-mino]-6-(trifluoromethyl)-2-pyridyl]oxy]acetamide]

Continued, molecule first:

SMILES | EC50 [1] | EC50 (S1PR2) | EC50 [2] | EC50 [3] | IC50 (HFL-1 cells [4]) | EC50 (HFL-1 cells [5])
COCCOc1cc(NC(=O)NCc2cc(C)c(-c3cn(C)nc3C(F)(F)F)nn2)cc(Cl)n1 [Compound 27, 1-[2-chloro-6-(2-methoxyethoxy)-4-pyridyl]-3-[[5-methyl-6-[1-methyl-3-(trifluoromethyl)pyrazol-4-yl]pyridazin-3-yl]methyl]urea] | ≥ 19.8 µM | 0.641 µM | ≥ 19.8 µM | 0.414 µM | – | –
Cc1cc(CNC(=O)Nc2cc(C#N)nc(OCC(F)F)c2)nnc1-c1cn(C)nc1C(F)(F)F [Compound 28, 1-[2-cyano-6-(2,2-difluoroethoxy)-4-pyridyl]-3-[[5-methyl-6-[1-methyl-3-(trifluoromethyl)pyrazol-4-yl]pyridazin-3-yl]methyl]urea] | 6.61 µM | 0.0897 µM | 6.61 µM | 0.016 µM | – | –
Cc1cc(CNC(=O)Nc2ccnc(Cl)c2)nnc1-c1cn(C)nc1C(F)(F)F [Compound 44, 1-(2-chloro-4-pyridyl)-3-[[5-methyl-6-[1-methyl-3-(trifluoromethyl)pyrazol-4-yl]pyridazin-3-yl]methyl]urea] | ≥ 19.8 µM | 4.15 µM | ≥ 19.8 µM | 4.5 µM | – | –
CCOc1nc(C#N)cc(NC(=O)NCc2cc(C)c(-c3cn(C)nc3C(F)(F)F)nn2)c1C1CC1 [Compound 58, 1-(6-cyano-3-cyclopropyl-2-ethoxy-4-pyridyl)-3-[[5-methyl-6-[1-methyl-3-(trifluoromethyl)pyrazol-4-yl]pyridazin-3-yl]methyl]urea] | ≥ 19.8 µM | 0.223 µM | ≥ 19.8 µM | 0.0696 µM | – | –
Cn1cc(-c2nnc(CNC(=O)Nc3cc(Cl)nc(OCC(F)F)c3)cc2C2CC2)c(C(F)(F)F)n1 [Compound 61, 1-[2-chloro-6-(2,2-difluoroethoxy)-4-pyridyl]-3-[[5-cyclopropyl-6-[1-methyl-3-(trifluoromethyl)pyrazol-4-yl]pyridazin-3-yl]methyl]urea] | 0.919 µM | 0.193 µM | 4.04 µM | 0.014 µM | – | –
Cn1cc(-c2nnc(CNC(=O)Nc3cc(Cl)nc(OCC(F)F)c3)cc2N2CCOCC2)c(C(F)(F)F)n1 [Compound 62, 1-[2-chloro-6-(2,2-difluoroethoxy)-4-pyridyl]-3-[[6-[1-methyl-3-(trifluoromethyl)pyrazol-4-yl]-5-morpholino-pyridazin-3-yl]methyl]urea] | 0.345 µM | 2.37 µM | 11 µM | 3.13 µM | – | –
CCOc1cc(NC(=O)NCc2nnc(-c3cn(C)nc3C(F)(F)F)c(C)c2C)cc(C(F)(F)F)n1 [Compound 66, 1-[[4,5-dimethyl-6-[1-methyl-3-(trifluoromethyl)pyrazol-4-yl]pyridazin-3-yl]methyl]-3-[2-ethoxy-6-(trifluoromethyl)-4-pyridyl]urea] | – | – | – | 4.25 µM | 29.9 µM | 0.996 µM
Cc1cn(-c2nnc(CNC(=O)Nc3cc(Cl)nc(OCC(F)F)c3)cc2C)c(C)n1 [Compound 70] | ≥ 19.8 µM | 0.904 µM | ≥ 19.8 µM | 0.904 µM | – | –
CCOc1nc(C)cc(NC(=O)NCc2cc(C)c(-c3cn(C)nc3C(F)(F)F)nn2)c1C#N [Compound 77, 1-(3-cyano-2-ethoxy-6-methyl-4-pyridyl)-3-[[5-methyl-6-[1-methyl-3-(trifluoromethyl)pyrazol-4-yl]pyridazin-3-yl]methyl]urea] | – | 20 µM | – | – | 29.9 µM | 2.74 µM
